AC50 and EC50 data for 32 compounds are collected here from ChEMBL document CHEMBL1201862, “PubChem BioAssay data set” (2004).

Assay [1] deals with T1, Cytochrome P450 1A2 (Homo sapiens, UniProt P05177).
T1 sequence (P05177 whole entry): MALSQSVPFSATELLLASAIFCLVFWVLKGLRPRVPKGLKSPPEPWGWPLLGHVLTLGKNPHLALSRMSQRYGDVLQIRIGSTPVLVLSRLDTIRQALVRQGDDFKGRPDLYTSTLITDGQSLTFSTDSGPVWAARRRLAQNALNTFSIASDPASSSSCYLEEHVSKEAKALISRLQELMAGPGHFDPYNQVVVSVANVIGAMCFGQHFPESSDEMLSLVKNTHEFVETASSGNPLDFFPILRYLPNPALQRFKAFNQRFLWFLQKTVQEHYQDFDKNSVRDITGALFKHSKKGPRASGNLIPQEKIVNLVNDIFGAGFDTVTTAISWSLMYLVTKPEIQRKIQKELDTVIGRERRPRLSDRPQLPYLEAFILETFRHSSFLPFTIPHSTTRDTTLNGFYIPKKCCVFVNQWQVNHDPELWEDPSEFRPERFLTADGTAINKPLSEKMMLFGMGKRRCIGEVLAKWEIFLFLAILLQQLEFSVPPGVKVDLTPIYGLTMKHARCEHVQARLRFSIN

Assay [2] has as its target Cytochrome P450 2D6 (Homo sapiens, UniProt P10635).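 Further: CYP2D6 member of a cytochrome P450 panel assay.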
In assay [3] the target is Cytochrome P450 2C9 (Homo sapiens, UniProt P11712).
Chain of Cytochrome P450 2C9 (P11712 whole entry): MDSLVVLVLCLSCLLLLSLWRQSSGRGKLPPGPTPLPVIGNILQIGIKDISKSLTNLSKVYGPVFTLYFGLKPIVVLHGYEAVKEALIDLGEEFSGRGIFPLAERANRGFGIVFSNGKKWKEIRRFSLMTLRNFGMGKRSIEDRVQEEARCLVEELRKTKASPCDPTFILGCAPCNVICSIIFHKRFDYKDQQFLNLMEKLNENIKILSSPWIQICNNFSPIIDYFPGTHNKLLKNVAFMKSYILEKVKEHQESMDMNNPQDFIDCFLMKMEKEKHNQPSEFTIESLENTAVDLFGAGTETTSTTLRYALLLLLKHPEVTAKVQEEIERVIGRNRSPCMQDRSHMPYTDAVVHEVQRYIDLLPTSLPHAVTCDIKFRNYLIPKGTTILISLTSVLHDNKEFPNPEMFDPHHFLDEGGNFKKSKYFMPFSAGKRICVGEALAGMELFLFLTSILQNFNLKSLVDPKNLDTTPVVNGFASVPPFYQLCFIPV
The target of assay [4] is T2, Corticotropin-releasing factor receptor 2/Corticotropin-releasing factor-binding protein (Homo sapiens, UniProt P24387+Q13324).
T2 sequence (Q13324 whole entry): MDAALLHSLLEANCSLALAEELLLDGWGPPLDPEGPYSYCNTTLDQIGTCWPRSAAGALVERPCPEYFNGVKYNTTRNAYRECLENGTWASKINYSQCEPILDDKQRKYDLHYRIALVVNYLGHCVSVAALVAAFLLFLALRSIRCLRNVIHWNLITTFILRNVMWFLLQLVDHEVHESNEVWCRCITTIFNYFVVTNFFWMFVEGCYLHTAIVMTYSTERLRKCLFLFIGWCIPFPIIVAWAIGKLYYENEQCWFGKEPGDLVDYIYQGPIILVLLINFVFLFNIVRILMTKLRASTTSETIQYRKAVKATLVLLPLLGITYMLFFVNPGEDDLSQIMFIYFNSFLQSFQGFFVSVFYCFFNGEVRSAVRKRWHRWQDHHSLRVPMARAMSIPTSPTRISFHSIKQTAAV
T2 sequence (P24387 whole entry): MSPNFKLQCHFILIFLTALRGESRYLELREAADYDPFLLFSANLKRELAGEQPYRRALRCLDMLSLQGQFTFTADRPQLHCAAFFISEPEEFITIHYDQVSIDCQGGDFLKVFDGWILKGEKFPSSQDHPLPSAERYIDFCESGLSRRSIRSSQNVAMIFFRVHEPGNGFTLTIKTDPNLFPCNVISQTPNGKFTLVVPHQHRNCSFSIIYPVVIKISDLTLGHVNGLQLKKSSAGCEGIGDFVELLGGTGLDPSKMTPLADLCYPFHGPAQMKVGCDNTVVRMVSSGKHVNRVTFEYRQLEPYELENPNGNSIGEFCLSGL
As to the kind of experiment: activators of CRF receptor 2 with binding protein – uHTS hits, confirmation (AID 602473). Type of assay: functional. The conditions noted are these: read-out: EC50_Mean.

Assay [5] can be described thus: Luminescence Cell-Based Dose Confirmation HTS to Identify Inhibitors of Platelet Dense Granule Release. [Related pubchem assays: 1663 (Primary HTS), 1678 (Summary of Project)]. Type of assay: functional.
Assay [6] concerns the target Luciferin 4-monooxygenase (Photinus pyralis, UniProt P08659). The assay can be described thus: firefly luciferase enzyme inhibitors, dose response, biochemical, luminescence (AID 1891).
A short description of assay [7]: Luminescence Cell-Based Dose Response HTS to Identify Activators of Luciferase Translation or Activity in H4 […] Cells. [Related pubchem assays: 1829 (Project Summary), 1814 (Primary HTS)]. Type of assay: functional.
Assay [8] concerns H4. As to the kind of experiment: Luminescence Cell-Based Dose Response HTS to Identify Activators of 5'UTR Stem-Loop Driven Prion Protein mRNA Translation in H4 Neuroglioblastoma Cells. [Related pubchem assays: 1829 (Project Summary), 1814 (Primary HTS)]. Type of assay: functional. The conditions noted are these: Homo sapiens.
Assay [9] deals with Cytochrome P450 3A4 (Homo sapiens, UniProt P08684).
Chain of Cytochrome P450 3A4 (P08684 whole entry): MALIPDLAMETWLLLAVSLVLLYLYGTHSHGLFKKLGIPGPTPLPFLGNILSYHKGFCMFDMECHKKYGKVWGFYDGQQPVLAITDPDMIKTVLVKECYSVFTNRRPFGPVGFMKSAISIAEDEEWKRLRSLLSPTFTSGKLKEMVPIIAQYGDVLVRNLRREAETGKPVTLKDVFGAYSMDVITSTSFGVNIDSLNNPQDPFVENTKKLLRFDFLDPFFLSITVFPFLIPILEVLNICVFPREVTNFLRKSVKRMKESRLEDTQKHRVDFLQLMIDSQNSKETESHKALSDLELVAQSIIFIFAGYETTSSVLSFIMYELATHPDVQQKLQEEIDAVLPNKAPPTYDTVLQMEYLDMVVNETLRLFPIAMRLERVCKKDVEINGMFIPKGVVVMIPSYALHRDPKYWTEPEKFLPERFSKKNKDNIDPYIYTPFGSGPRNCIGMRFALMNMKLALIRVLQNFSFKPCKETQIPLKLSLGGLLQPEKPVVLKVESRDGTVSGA
Assay [10] has as its target Cytochrome P450 2C19 (Homo sapiens, UniProt P33261). As to the kind of experiment: Cytochrome panel assay with activity outcomes. Panel member name: p450-cyp2c19 Compounds with AC50 equal or less than 10 uM are considered active. Type of assay: functional. The note with it: read-out: AC50.
The target of assay [11] is T3, Streptokinase A (Streptococcus pyogenes serotype M1, UniProt P10520).
T3 sequence (P10520 whole entry): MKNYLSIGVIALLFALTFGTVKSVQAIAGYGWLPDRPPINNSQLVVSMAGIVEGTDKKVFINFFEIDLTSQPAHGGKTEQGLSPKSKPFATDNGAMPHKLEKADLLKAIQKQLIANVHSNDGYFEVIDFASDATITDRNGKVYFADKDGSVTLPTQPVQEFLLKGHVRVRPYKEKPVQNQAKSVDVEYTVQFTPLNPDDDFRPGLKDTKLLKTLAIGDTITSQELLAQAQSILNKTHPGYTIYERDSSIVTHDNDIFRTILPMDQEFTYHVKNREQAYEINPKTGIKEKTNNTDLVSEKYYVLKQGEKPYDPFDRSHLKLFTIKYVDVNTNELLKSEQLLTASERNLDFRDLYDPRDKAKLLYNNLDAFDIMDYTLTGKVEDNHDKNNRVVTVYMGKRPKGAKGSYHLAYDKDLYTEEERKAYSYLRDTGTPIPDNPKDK
As to the kind of experiment: S. pyogenes streptokinase expression inhibitors, potency, dose response, plasminogen activation absorbance, OD405 (AID 1914).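 Further: secreted streptokinase activity via plasminogen activation per viability signal from cell pellet.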 Type of assay: functional, Streptococcus pyogenes M1 GAS.

Assay [12] relates to Streptococcus sp. 'group A'. As to the kind of experiment: growth inhibition of control SK(-) GAS strain, dose response, counter-screen for streptokinase expression inhibitor project, luminescence, kanamycin, BacTiterGlo, confirmation (AID 1900). Format: functional, organism-based. (In general: The purpose of a counterscreen is to sort out artefacts and off-target activity.)

For assay [13], the system named is Streptococcus. As to the kind of experiment: Group A Streptococcus viability loss, dose response, counter-screen for streptokinase expression inhibitor project, luminescence, BacTiterGlo (AID 1915).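 Further: potency for reduction of bacterial viability or growth.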 Type of assay: functional, organism-based.
Assay [14] can be described thus: inhibitors of firefly luciferase expression or activity, dose response, H4 neuroglioma cells, luminescence (AID 1990). Format: functional, cell-based.
Assay [15] is described as follows: inhibitors of SNCA 5'UTR-driven reporter translation, confirmation, H4 neuroglioma cells, luminescence (AID 1988). Type of assay: functional, cell-based.
A short description of assay [16]: inhibitors of clade B AD8 Env fusion, dose response, cell-based, cherry-pick (AID 652062).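 Further: luciferase signal from cell-cell fusion driven by HIV-1 clade B AD8 Env; potency is for inhibitors of fusion seen as a drop in luminescence.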 Format: functional.

Activity calls are given as the source filed them. Peptide text beside a SMILES is read from it.

Chain of Luciferin 4-monooxygenase (P08659 whole entry): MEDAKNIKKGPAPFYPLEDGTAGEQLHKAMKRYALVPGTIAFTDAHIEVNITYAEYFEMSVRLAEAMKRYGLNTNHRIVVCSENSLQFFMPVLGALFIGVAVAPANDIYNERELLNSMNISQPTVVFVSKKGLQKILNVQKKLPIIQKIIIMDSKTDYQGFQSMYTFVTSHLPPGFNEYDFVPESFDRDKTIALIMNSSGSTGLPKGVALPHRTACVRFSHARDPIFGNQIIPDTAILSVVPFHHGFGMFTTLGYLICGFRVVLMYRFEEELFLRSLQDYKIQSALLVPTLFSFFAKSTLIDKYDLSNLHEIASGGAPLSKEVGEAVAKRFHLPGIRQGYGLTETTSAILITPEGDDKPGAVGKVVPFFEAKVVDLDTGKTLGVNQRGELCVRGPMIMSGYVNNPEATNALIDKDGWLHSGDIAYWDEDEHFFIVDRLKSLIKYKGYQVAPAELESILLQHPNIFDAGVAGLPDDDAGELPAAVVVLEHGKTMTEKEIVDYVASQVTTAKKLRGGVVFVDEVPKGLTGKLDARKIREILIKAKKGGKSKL
Chain of Cytochrome P450 2C19 (P33261 whole entry): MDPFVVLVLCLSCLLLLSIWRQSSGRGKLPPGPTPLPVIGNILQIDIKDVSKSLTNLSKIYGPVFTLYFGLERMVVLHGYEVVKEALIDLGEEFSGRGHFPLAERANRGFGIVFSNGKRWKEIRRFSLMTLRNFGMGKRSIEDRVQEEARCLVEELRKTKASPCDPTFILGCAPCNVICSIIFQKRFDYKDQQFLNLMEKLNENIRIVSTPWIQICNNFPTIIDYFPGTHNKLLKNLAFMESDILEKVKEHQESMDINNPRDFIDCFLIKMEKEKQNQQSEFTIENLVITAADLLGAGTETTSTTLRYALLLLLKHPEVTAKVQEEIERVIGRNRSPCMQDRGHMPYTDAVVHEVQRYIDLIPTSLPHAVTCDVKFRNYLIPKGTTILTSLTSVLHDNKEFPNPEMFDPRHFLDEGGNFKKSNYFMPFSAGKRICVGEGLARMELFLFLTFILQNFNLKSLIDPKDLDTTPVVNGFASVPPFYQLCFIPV
Chain of Cytochrome P450 2D6 (P10635 whole entry): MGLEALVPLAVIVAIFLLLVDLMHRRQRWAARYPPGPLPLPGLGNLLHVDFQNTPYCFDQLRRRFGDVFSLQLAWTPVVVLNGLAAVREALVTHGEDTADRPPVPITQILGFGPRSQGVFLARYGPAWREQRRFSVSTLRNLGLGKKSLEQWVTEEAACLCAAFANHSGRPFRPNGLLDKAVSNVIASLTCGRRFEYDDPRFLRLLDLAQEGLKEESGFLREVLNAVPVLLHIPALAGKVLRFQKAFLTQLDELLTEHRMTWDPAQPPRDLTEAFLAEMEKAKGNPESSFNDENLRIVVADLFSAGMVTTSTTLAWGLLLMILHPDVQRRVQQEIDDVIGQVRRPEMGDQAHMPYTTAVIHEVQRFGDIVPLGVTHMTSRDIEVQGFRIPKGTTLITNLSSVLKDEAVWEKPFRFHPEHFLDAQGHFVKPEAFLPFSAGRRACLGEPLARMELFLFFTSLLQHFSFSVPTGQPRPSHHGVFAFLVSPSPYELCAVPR

Broadly, the AC50 is the concentration giving half of the maximal activity seen. On to `O=C(c1nn(Cc2ccccc2)c(=O)c2ccccc12)N1CCN(C/C=C/c2ccccc2)CC1`, for which the AC50 is 20 µM (inconclusive) in [1] and 17.8 µM (inconclusive) in assay [2].
Consider `O=C(c1cccc(F)c1)N1CCC[C@@]2(CCN(Cc3ccncc3)C2)C1`, for which the AC50 in assay [2] is 25.1 µM (inconclusive); in [3], 20 µM (inconclusive).
As for `CCOc1ccc(C2C(C#N)=C(N)N3C(=C2C#N)Sc2ccccc23)cc1` (configuration not stated), the EC50 in assay [4] is 8.06 µM (active).
Turning to `O=S(=O)(Nc1cccc(-c2ccc3nncn3n2)c1)c1cc(F)ccc1F`, the EC50 in assay [5] and in assay [6] was > 112 µM (not active) in each case.
With `CC1(c2ccc(OC(F)F)cc2)NC(=O)N(CC(=O)Nc2cccnc2Cl)C1=O` (configuration not stated), the EC50 in assay [4] was 15 µM (active).
For `C=C1CCC2[C@](C)(CO)[C@H](O)CC[C@@]2(C)[C@@H]1C/C=C1\C(=O)OC[C@H]1O` (some centres not stated), the results for the EC50 in assay [7] and in [8] were > 120 µM (not active) and 33 µM (active), respectively.
Take `Cc1cccc(NC2=NN=C(c3ccc4c(c3)OCCO4)CS2)c1`: the AC50 in assay [9] was 2.82 µM (inconclusive); in [2], 17.8 µM (inconclusive); in assay [10] it was 5.01 µM (inconclusive); in [3], 5.62 µM (inconclusive).
As for `COC(=O)c1nc(NC(=S)NC(=O)c2cccs2)sc1C`, the EC50 in assay [11] is > 150 µM (not active); in assay [12] it was 9.59 µM (active); in assay [13], > 150 µM (not active).
As to `O=C(CCCCCNC(=O)c1ccccc1)N=Nc1c(O)[nH]c2c(Br)cc(Br)cc12`, the EC50 was > 150 µM (not active) in assay [11], 6.76 µM (active) in assay [12] and 28.4 µM (active) in assay [13].
Regarding `CCN(CC)S(=O)(=O)c1cccc(NC(=O)COC(=O)CCC(=O)c2ccc(F)cc2)c1`, the EC50 in assay [5] and in [6] was > 112 µM (not active) in each case.
Turning to `Cc1onc(C(=O)Nc2ccc3c(c2)OCO3)c1[N+](=O)[O-]`, the EC50 in [5] and in assay [6] was > 112 µM (not active) in each case.
For the compound `CC(C)Cc1csc(NC(=O)c2ccc(Br)cc2)c1C(=O)O`, the EC50 in assay [11] is > 150 µM (not active); in assay [12], 3.59 µM (active); in assay [13], 6.59 µM (active).
`CCc1c2c(nc3cccc(OC)c13)OC(CC)C2` (configuration not stated): the figures for the AC50 in [2] and in assay [10] were 39.8 µM (inconclusive) and 20 µM (inconclusive), respectively.
Take `O=C1c2ccccc2CCC12N=NCC2c1ccc(Cl)cc1` (configuration not stated): the values for the AC50 in [1], in assay [9] and in assay [2] were 20 µM (inconclusive), 39.8 µM (inconclusive) and 28.2 µM (inconclusive), respectively.
`O=c1c(CCc2ccccc2)nc2cncnc2n1-c1ccccc1`: the half-maximal activity concentration (AC50) is 5.01 µM (inconclusive) in assay [9], 25.1 µM (inconclusive) in assay [2] and 25.1 µM (inconclusive) in assay [3].
`COCC(=O)N1CCC2(CCCN(Cc3ccncc3)C2)CC1`: the results for the AC50 in assay [9] and in assay [2] were 12.6 µM (inconclusive) and 15.8 µM (inconclusive), respectively.
Turning to `COc1cnc(-c2ccccn2)nc1Oc1ccccc1Cl`, the EC50 in assay [11], in assay [12] and in [13] was > 150 µM (not active) throughout.
As for `CCN(CC)CCNC(=O)c1cc(Br)c(N)cc1OC` [BROMOPRIDE], the AC50 in assay [1] was 10 µM (inconclusive); in [2], 5.01 µM (inconclusive).
Consider `O=C(NC1CCCc2ccccc21)C1CCN(S(=O)(=O)N2CCCCCC2)CC1` (configuration not stated), for which the AC50 was 20 µM (inconclusive) in assay [2] and 31.6 µM (inconclusive) in [3].
In the case of `FC(F)(F)c1nc2nc(Cl)c(Cl)nc2n1CCCN1CCOCC1`, the AC50 in assay [1] was 3.16 µM (inconclusive); in [9], 5.01 µM (inconclusive); in assay [2] it was 3.98 µM (inconclusive).
Turning to `Fc1ccc(-n2cc(-c3ccccc3)c3c(NN4CCOCC4)ncnc32)cc1`, the EC50 in assay [14] and in assay [15] was > 120 µM (not active) in each case.
As for `COc1cccc(S(=O)(=O)N2CC3(CN(C(=O)Nc4cccc(F)c4)[C@H](CO)c4[nH]c5cc(OC)ccc5c43)C2)c1`, the AC50 in [16] was 22 µM (active).
With `C/C(=N\NC(=O)c1ccc(O)cc1)c1cccc(NC(=O)c2ccccc2C)c1`, the EC50 in assay [11], in assay [12] and in assay [13] was > 150 µM (not active) in each case.
Regarding `CCCCc1ccc(NC(=O)NCc2ccccn2)cc1`, the EC50 in assay [11], in assay [12] and in assay [13] was > 150 µM (not active) throughout.
For the compound `COC(=O)c1sccc1NC(=O)Nc1ccc(OC)cc1`, the EC50 was 1.33 µM (active) in [5] and 0.358 µM (active) in [6].
The corresponding values for `Cc1ccsc1/C=N/N1CCN(C2c3ccccc3-c3ccccc32)CC1` are > 112 µM (not active) and > 112 µM (not active).
In the case of `Cc1c(C#N)c(N)nc2c3c(sc12)NC(=O)CC3c1ccc(F)cc1` (configuration not stated), the EC50 in assay [5] and in [6] was > 112 µM (not active) throughout.
Turning to `CCCCOC(=O)N/N=C/C=C/c1ccccc1`, the EC50 in assay [5] and in assay [6] was > 112 µM (not active) throughout.
For `COc1ccc(C(=O)OC2CCN(c3ncc(C(F)(F)F)cc3Cl)CC2)cc1`, the EC50 was > 150 µM (not active) in assay [11], 66.5 µM (active) in assay [12] and 39.7 µM (active) in assay [13].
As to `COC(=O)c1ccc(Oc2nc(C)cc(Oc3ccccc3)n2)cc1`, the EC50 in assay [5] and in [6] was > 112 µM (not active) each time.
Take `CCc1ccccc1/N=C/c1c(C)c(C#N)c2nc3ccccc3n2c1O`: the EC50 in assay [4] is 4.75 µM (active).
Turning to `COC(=O)C(CC(C)C)NC(=O)C(N)Cc1ccccc1` (stereo not drawn) (H-Phe-Leu-OMe; configuration not given here), the AC50 in assay [2] was 15.8 µM (inconclusive); in assay [10], 17.8 µM (inconclusive).
